Assay [1] in a line: SNU-C1 cell viability reduction, dose response, CellTiter-Glo luminescence (AID 1117323). It counts as functional, cell-based. (In general: ATP-based viability assays read luminescence as a measure of living cells.)
The nature of assay [2]: CellTiter-Glo luminescent dose response of DLD-1 viability loss (AID 1117352). It counts as functional.
Assay [3] is described as follows: RKO cell viability reduction, dose response, CellTiter-Glo luminescence (AID 1117322). The format is functional.
Assay [4] is described as follows: HCT116 cell viability decrease, GSK3B pretreatment – CellTiter-Glo, IC50, dose response (AID 1117339). It counts as functional. To be noted: HCT-116.
Assay [5] can be described thus: Concentration-dependent survival of SW480 colon cancer line, luminescence detection with CellTiter-Glo, half-maximal inhibitory concentration (AID 1117338). It counts as functional.
Assay [6] can be described thus: cytotoxicity toward HCT116 cells – cell-based, CellTiter-Glo luminescence, IC50, dose response (AID 1117332). The format is functional. To be noted: HCT-116.
Assay [7] can be described thus: cytotoxicity toward Colo320 cells – cell-based, CellTiter-Glo luminescence, IC50, dose response (AID 1117334). The format is functional. The following applies: COLO 320.
A short description of assay [8]: cytotoxicity toward HT-29 cells – cell-based, CellTiter-Glo luminescence, IC50, dose response (AID 1117330). The format is functional.
Assay [9] in a line: IGROV1 ovarian cancer cell cytotoxicity, dose response, PAX8 inhibitor project, plate reader, dry powder samples (AID 743043). It counts as functional, cell-based. To be noted: IGROV-1.
Assay [10] can be described thus: non-specific cell cytotoxicity, dose response, cytotoxicity control for PAX8 inhibitor project, plate reader, dry powder samples (AID 743021). It counts as functional, cell-based.
Assay [11] can be described thus: NIH:OVCAR-3 ovarian cancer cell cytotoxicity, dose response, PAX8 inhibitor project, plate reader, dry powder samples (AID 743044). It counts as functional, cell-based.
The target of a further assay is Paired box protein Pax-8 (Homo sapiens, UniProt Q06710). The experiment in a line: inhibitors of PAX8-driven TPO luciferase reporter, dose response, RMG-I cells, cherry-pick (AID 687027).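 Note: luciferase reporter driven by Pax8 target thyroperoxidase promoter measured by SteadyGlo luminescence.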 It counts as functional, cell-based. (In a reporter assay the amount or activity of a reporter protein is the signal.)
The next assay relates to HeLa. The experiment in a line: HeLa cell cytotoxicity, dose response, cytotoxicity control, ATP luminescence, cherry-pick samples (AID 687004). The following applies: Homo sapiens. It counts as functional, cell-based.
Assay [12] can be described thus: P. falciparum 3D7-ScDHODH growth inhibitors, dose response, SYBR Green, dry powder samples (AID 1159570).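 Note: parasite growth measured after 72 hours of compound exposure.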 The format is functional, cell-based.
The nature of assay [13]: P. falciparum Dd2 growth inhibitors, dose response, SYBR Green, cherry-picked samples (AID 1159567). The format is functional, cell-based.
Assay [14] in a line: P. falciparum Dd2 growth inhibitors, dose response, SYBR Green, dry powder samples (AID 1159566).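 Note: potency for growth inhibition with lower SYBR green DNA signal.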 It counts as functional, cell-based.
The nature of assay [15]: HEK293T cytotoxicity, dose response, cytotoxicity control for miR-122 modulator project, cell-based, activator set, cherry-pick (AID 720690).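 Note: HEK293T human cells scored for general mammalian cytotoxicity.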 It counts as functional.
Assay [16] can be described thus: HepG2 cell cytotoxicity, dose response, cytotoxicity control, plate reader, dry powder samples (AID 1159569).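 Note: inhibitor potency with signal falling toward the positive control level.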 It counts as functional, cell-based.
Assay [17] in a line: P. falciparum ATP4 D1247Y mutant growth inhibitors, dose response, NITD609-resistant line, SYBR Green, dry powder (AID 1159571).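 Note: parasites synchronized at ring stage by sorbitol before testing.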 It counts as functional, cell-based.
Assay [18] has as its target NAD-dependent protein deacylase sirtuin-5, mitochondrial (Homo sapiens, UniProt Q9NXA8). The experiment in a line: SIRT5 deacylase inhibitors, dose response, biochemical, fluorescence imaging, cherry-pick, set 6 (AID 720597).
Assay [19] in a line: HEK293 cell cytotoxicity, dose response, cytotoxicity control, cherry-picks, set 5 (AID 1053117). It counts as functional, cell-based.
The nature of assay [20]: HepG2 cell cytotoxicity, dose response, cytotoxicity control, cherry-picked samples (AID 1159577). The format is functional, cell-based.
The next assay in a line: cells. It counts as functional, cell-based.
Assay [21] addresses T1, Nuclear receptor subfamily 0 group B member 1 (Homo sapiens, UniProt P51843).
T1 sequence (P51843 whole entry): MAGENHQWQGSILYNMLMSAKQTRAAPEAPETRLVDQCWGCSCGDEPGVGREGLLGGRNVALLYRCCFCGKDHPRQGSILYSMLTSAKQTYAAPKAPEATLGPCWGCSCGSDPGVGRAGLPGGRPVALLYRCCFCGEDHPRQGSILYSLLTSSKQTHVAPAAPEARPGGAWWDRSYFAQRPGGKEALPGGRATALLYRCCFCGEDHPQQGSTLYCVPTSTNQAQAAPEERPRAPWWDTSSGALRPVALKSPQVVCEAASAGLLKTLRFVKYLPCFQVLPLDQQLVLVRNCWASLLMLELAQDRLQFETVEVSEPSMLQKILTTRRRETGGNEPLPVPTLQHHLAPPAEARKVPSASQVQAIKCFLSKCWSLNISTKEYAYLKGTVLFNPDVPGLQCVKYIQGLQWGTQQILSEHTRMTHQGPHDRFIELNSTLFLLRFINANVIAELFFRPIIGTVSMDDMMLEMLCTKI
The format is functional, cell-based.

Molecules are shown by their SMILES. The source made the active and inactive calls.

Sequence of Paired box protein Pax-8 (Q06710 whole entry): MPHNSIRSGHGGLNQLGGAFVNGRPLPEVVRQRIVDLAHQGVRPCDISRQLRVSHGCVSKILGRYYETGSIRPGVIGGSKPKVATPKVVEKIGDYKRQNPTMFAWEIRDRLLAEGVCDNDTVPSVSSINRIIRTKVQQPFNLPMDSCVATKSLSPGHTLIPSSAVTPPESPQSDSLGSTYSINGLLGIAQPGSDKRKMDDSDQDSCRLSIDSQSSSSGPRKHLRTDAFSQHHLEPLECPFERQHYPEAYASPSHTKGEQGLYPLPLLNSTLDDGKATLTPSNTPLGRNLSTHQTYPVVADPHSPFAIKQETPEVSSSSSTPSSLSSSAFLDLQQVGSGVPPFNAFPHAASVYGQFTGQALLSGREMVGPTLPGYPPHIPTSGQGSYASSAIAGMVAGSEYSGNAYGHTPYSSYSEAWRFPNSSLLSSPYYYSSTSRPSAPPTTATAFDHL
Sequence of NAD-dependent protein deacylase sirtuin-5, mitochondrial (Q9NXA8 whole entry): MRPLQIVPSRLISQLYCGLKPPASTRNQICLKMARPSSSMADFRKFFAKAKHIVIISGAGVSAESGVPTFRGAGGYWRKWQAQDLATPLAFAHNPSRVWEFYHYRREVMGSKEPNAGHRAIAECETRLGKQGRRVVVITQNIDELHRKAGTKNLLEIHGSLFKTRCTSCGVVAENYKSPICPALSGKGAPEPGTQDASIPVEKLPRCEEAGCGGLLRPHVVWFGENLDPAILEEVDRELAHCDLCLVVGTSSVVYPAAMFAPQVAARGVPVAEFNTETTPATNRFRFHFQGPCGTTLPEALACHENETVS

Usually IC50 stands for the midpoint of a concentration-inhibition curve. With `COc1ccc(CN2CCN(C(c3ccc(F)cc3)c3ccc(F)cc3)CC2)c(OC)c1OC`, the IC50 in assay [1] is 0.443 µM (active); in assay [2] it was 3.13 µM (active); in assay [3], 3.7 µM (active); in assay [4] it was 2.77 µM (active); in assay [5], 3.32 µM (active); in [6], 1.7 µM (active). Moreover, the IC50 was 2.82 µM (active) in [7] and 2.93 µM (active) in [8].

What is called AC50 is the concentration at which the activity in the assay is half-maximal. Take `O=C(Nc1cccc(F)c1)N1CCCCN2[C@H](CO)[C@@H](c3ccc(-c4ccccc4F)cc3)[C@H]2C1`: the AC50 in assay [9] is 50.9 µM (active); in assay [10], 57.4 µM (active); in assay [11], 21.9 µM (active); on Paired box protein Pax-8, 10.2 µM (active).

Turning to `C[C@@H]1CN([C@@H](C)CO)C(=O)c2cccc(NS(C)(=O)=O)c2O[C@@H]1CN(C)C(=O)Nc1ccc2c(c1)OCO2`, the AC50 with HeLa was 21.1 µM (active).

With `C[C@H]1CN([C@@H](C)CO)S(=O)(=O)c2ccc(C#Cc3ccccc3F)cc2O[C@@H]1CN(C)C(=O)c1ccc2c(c1)OCO2`, the AC50 in assay [12] is 2.06 µM (active); in [13] it was 1.66 µM (active); in assay [14] it was 1.55 µM (active); in [15], 19.5 µM (active); in [16], 33.7 µM (active); in assay [17] it was 1.71 µM (active).

`CN(C)C(=O)c1cccc(-c2ccccc2[C@H]2[C@@H](C#N)N(C(=O)C3CC3)[C@@H]2CO)c1`: in assay [18], the AC50 was > 32 µM (inactive).

On to `CCCC#Cc1ccc2c(c1)O[C@@H](CN(C)C(=O)Nc1ccccc1F)[C@H](C)CN([C@H](C)CO)S2(=O)=O`, for which, in assay [18], the AC50 is > 30 µM (inactive).

Regarding `C[C@H](CO)N1C[C@H](C)[C@H](CN(C)C(=O)c2cccc(F)c2)Oc2ncc(-c3ccccc3)cc2C1=O`, the AC50 in [19] was > 52 µM (inactive).

On to `COc1ccc(-c2ccc([C@H]3[C@@H]4CN(S(=O)(=O)c5cccc(C)c5)C[C@H]3N4)cc2)cc1`, for which the AC50 in assay [20] was > 39 µM (inactive); in assay [12] it was 1.48 µM (active); in assay [13], 1.99 µM (active); in [14], 2 µM (active); in assay [16], 20.8 µM (active); in assay [17] it was 1.86 µM (active).

For `COc1ccc(OC)c(-c2nnc3n2N=C(c2ccc(OC)c(OC4CCOC4)c2)CS3)c1` (stereo unspecified), the IC50 (in “cells”; in assay [21]) was > 67.5 µM (inactive) in each case. The AC50 on Paired box protein Pax-8 was 2.71 µM (active).
